From patent EP1944293A1, “Alpha-Polymorph of a substituted pyrazoline, its preparation and use as medicaments” (Laboratorios del Dr. Esteve S.A., priority 2007, dated 2008)

Key:
[1] = Plasma leptin assay in dietary-induced obese rats; assay type: in vivo, female Wistar rats; conditions: Figure 5
Protocol: (§1) The experiment was performed on female Wistar rats (originally in the weight range 250-300 g). The rats were housed in pairs in polypropylene cages with solid floors and sawdust bedding at a temperature of 21±4°C and 55±20% humidity. Animals were maintained on a reverse phase light-dark cycle (lights off for 8 h from 09.30-17.30 h) during which time the room was illuminated by red light. Animals had free access to powdered high fat diet (VRF1 plus 20% lard), ground chocolate, ground peanuts and tap water at all times. The three different diets were contained in separate glass feeding jars with aluminum lids with a 3-4 cm hole cut in it to allow access to the food. Animals were housed in pairs for twelve weeks for the induction of obesity. Animals were then housed singly in polypropylene cages with wire grid floors to enable the food intake of each rat to be recorded. […] Animals were accustomed to these new conditions (individual housing and the wire-grid floor cages) for at least 14 days before the start of the baseline readings. […] Plasma leptin concentration was determined using Assay Designs rat leptin enzyme immunometric assay kits (Cat No. 900-015) according to the manufacturer's regular protocol. […] Optical density at 450 nm was determined using a Molecular Devices VERSAmax tunable microplate reader and readings transferred to GraphPad Prism. […]

[2] = Feeding study in dietary-induced obese rats: food intake and body weight; assay type: in vivo, female Wistar rats; conditions: end of 28 day treatment, Figure 3
Protocol: The experiment was performed on female Wistar rats (originally in the weight range 250-300 g). The rats were housed in pairs in polypropylene cages with solid floors and sawdust bedding at a temperature of 21±4°C and 55±20% humidity. Animals were maintained on a reverse phase light-dark cycle (lights off for 8 h from 09.30-17.30 h) during which time the room was illuminated by red light. Animals had free access to powdered high fat diet (VRF1 plus 20% lard), ground chocolate, ground peanuts and tap water at all times. The three different diets were contained in separate glass feeding jars with aluminum lids with a 3-4 cm hole cut in it to allow access to the food. Animals were housed in pairs for twelve weeks for the induction of obesity. Animals were then housed singly in polypropylene cages with wire grid floors to enable the food intake of each rat to be recorded. Polypropylene trays with cage pads were placed beneath each cage to detect any food spillage. Animals were accustomed to these new conditions (individual housing and the wire-grid floor cages) for at least 14 days before the start of the baseline readings. […] Food intake and body weight were measured once daily. […] Thus, means were adjusted for differences in body weight between the groups on Day 1 and standard errors of the mean (SEM) were calculated from the residuals of the statistical model. […]

[3] = target: T1, recombinant human cannabinoid 1 receptor (CB1) (Homo sapiens, UniProt P21554); experiment: In vitro determination of antagonism to CB1-receptor, [35S]GTPγS binding assay; assay type: biochemical; conditions: compound 1 µM versus agonist WIN 55,212-2; 100 % = maximal antagonism with Rimonabant (1 µM)
T1 construct: expressed in transfected cells
Protocol: The reaction is performed in 96-well plates. […] Radioactivity is determined using a Wallac Microbeta Trilux. Each experiment is performed at least in duplicate.
The average of basal [^35S]GTPγS binding is subtracted from all binding data.

[4] = Plasma insulin assay in dietary-induced obese rats; assay type: in vivo, female Wistar rats; conditions: Figure 6
Protocol: as §1, with “insulin” for “leptin”, “Mercodia ultrasensitive” for “Assay Designs”, “insulin ELISA” for “leptin enzyme immunometric assay”, “kits” for “kits (Cat No. 900-015)”, “manufacturers 50 µl sample” for “manufacturer's regular”

[5] = Determination of carcass fat content in dietary-induced obese rats; assay type: in vivo, female Wistar rats; conditions: g per rat, Figure 4
Protocol: The experiment was performed on female Wistar rats (originally in the weight range 250-300 g). The rats were housed in pairs in polypropylene cages with solid floors and sawdust bedding at a temperature of 21±4°C and 55±20% humidity. Animals were maintained on a reverse phase light-dark cycle (lights off for 8 h from 09.30-17.30 h) during which time the room was illuminated by red light. Animals had free access to powdered high fat diet (VRF1 plus 20% lard), ground chocolate, ground peanuts and tap water at all times. The three different diets were contained in separate glass feeding jars with aluminum lids with a 3-4 cm hole cut in it to allow access to the food. Animals were housed in pairs for twelve weeks for the induction of obesity. Animals were then housed singly in polypropylene cages with wire grid floors to enable the food intake of each rat to be recorded. […] Animals were accustomed to these new conditions (individual housing and the wire-grid floor cages) for at least 14 days before the start of the baseline readings. […] Percentage fat in the freeze-dried sample was calculated as follows: % fat = [100 × (final cup weight-initial cup weight)]/sample weight [formula] Percentage fat in the original sample was calculated using the % water as follows: % fat in original sample = % fat[(100-%water)/100] […]

[6] = Stability of the crystalline form; assay type: physicochemical; conditions: under certain conditions, especially around room temperature, and/or over time
Herg channel = Herg channel (Homo sapiens, UniProt Q12809); experiment: Herg channel affinity; conditions: low risk of prolongation of the QT-interval expected
Solubility = assay type: physicochemical
[7] = 10 mg/kg po once daily for 28 days
[8] = 30 mg/kg po once daily for 28 days

T1 sequence (P21554 whole entry): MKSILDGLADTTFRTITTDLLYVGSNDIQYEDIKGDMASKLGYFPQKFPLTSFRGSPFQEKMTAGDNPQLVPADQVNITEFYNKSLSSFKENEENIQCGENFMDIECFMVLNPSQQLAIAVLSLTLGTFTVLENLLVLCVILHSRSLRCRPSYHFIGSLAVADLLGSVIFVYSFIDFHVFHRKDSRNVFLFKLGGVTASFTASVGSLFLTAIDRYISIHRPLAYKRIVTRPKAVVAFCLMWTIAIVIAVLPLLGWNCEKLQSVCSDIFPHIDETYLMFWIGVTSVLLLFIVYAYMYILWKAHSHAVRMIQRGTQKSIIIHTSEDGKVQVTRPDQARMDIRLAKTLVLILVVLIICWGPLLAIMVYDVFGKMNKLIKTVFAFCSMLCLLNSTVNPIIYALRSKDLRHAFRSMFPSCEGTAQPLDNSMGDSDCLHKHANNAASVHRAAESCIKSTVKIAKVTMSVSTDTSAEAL
Herg channel, sequence (Q12809 whole entry): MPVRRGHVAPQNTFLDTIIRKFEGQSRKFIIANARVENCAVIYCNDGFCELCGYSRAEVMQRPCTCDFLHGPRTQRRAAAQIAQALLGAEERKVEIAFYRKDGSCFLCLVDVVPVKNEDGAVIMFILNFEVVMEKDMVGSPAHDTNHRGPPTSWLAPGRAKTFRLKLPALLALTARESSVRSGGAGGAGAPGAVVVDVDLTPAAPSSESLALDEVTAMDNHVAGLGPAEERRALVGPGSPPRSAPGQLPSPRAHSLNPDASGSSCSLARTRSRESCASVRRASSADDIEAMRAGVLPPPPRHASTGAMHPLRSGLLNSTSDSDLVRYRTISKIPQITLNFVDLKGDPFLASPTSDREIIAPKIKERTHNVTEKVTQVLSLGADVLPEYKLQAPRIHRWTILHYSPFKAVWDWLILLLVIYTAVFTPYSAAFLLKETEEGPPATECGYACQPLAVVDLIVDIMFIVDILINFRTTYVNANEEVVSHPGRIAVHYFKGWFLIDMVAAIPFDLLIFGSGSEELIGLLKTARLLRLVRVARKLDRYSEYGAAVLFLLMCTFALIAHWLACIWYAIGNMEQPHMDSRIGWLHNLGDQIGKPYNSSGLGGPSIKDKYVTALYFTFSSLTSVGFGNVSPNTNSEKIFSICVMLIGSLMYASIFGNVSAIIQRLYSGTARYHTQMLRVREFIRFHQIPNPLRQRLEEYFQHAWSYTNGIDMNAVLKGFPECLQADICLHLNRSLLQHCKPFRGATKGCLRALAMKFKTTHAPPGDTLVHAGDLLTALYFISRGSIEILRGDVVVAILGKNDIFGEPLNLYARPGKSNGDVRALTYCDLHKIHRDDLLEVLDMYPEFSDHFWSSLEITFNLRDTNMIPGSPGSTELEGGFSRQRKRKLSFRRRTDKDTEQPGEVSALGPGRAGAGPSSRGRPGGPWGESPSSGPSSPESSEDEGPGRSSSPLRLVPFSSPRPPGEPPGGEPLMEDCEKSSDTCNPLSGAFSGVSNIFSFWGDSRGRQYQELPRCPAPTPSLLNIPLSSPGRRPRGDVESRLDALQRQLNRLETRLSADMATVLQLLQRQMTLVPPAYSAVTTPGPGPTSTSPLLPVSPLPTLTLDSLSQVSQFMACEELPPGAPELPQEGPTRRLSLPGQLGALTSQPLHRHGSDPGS

SMILES | decrease of plasma leptin levels compared to the vehicle-treated control group [1, 7] [%] | decrease of plasma leptin levels compared to the vehicle-treated control group [1, 8] [%] | body weights lower than those of the vehicle-treated controls ([2]; 10 mg/kg po once daily) [%] | body weights lower than those of the vehicle-treated controls ([2]; 30 mg/kg po once daily) [%] | Antagonism [%] [3] [%] | decrease of plasma insulin levels compared to the vehicle-treated control group [4, 7] [%] | decrease of plasma insulin levels compared to the vehicle-treated control group [4, 8] [%] | decrease in body fat compared to the vehicle-treated control group [5, 7] [g] | decrease in body fat compared to the vehicle-treated control group [5, 8] [g] | stability [6] | Herg channel affinity (Herg channel) | solubility (Solubility)
O=C(NN1CCCCC1)C1=NN(c2ccc(Cl)cc2Cl)[C@@H](c2ccc(Cl)cc2)C1 [Compound A, (R)-N-piperidinyl-5-(4-chlorophenyl)-1-(2,4-dichlorophenyl)-4,5-dihydro-1H-pyrazole-3-carboxamide] | 36.1 | 61.7 | 12.0 | 19.0 | 106 | 38.9 | 41.8 | 42.8 | 67.8 |  |  | 
O=C(NN1CCCCC1)C1=NN(c2ccc(Cl)cc2Cl)[C@@H](c2ccc(Cl)cc2)C1 [α-Polymorph, α-Polymorph of (R)-N-piperidinyl-5-(4-chlorophenyl)-1-(2,4-dichlorophenyl)-4,5-dihydro-1H-pyrazole-3-carboxamide] |  |  |  |  |  |  |  |  |  | good stability | relatively weak | relatively good
